Patent US10028966B2 (Avalyn Pharma Inc., priority 2014, dated 2018)
Marks after values point to notes of the source that are not given here.

What was measured:
[1] = 85% saturation pirfenidone formulations exposed to several temperatures (re-crystallization); assay type: physicochemical
Text: However, in all cases pirfenidone eventually re-crystallized. This re-crystallization was not inhibited by pre-filtration of the sample.

[2] = system: bleomycin model of pulmonary fibrosis; experiment: Bleomycin model of pulmonary fibrosis (hydroxyproline, fibrosis score); assay type: in vivo, Wistar rats; settings: for Right lung Average Hydroxyproline: days 7-28; for Average Fibrosis Score, difference from bleomycin control / Right lung Average Hydroxyproline, difference from bleomycin control: sham-subtracted
Experimental: To compare anti-fibrotic efficacy between extended-duration intratracheal, direct-lung aerosol administration and oral gavage, the bleomycin model of pulmonary fibrosis was performed. Doses for this study were selected based upon pharmacokinetic parameters obtained in Table 22 (from Example 8). Briefly, Wistar rats (175-225 grams) were administered bleomycin by the intratracheal route using a Penn Century MicroSprayer® catheter. On the seventh day following bleomycin exposure, animals initiated treatment with either saline or pirfenidone. Animals were dosed once a day on days 7 through 28, and euthanized on day 29. Pirfenidone was administered either intratracheally using Penn Century MicroSprayer catheter or by oral gavage. Sham and bleomycin control groups received either no treatment or intratracheal saline by Penn Century MicroSprayer catheter. While dosing more frequently (or less frequently) may improve the observed effects, anesthesia required for intratracheal administration reduced animal weight gain (reduced food intake) and, thus limited dosing to once a day for this study. Because anesthesia reduced weight gain, all study animals (intratracheal, oral and control) received once-a-day isoflurane using the same technique and duration. Twelve animals were enrolled into each dosing group. […] Oral gavage was administered in a single 300 mcL volume. Due to technical restrictions, instead of the mg/kg dose being equally split between six 50 mcL administrations over 2 minutes, intratracheal administration was performed with three equal 50 mcL volumes administered every 40 seconds over the same period. For dose selection, data from Table 22 was extrapolated. On day 29, animals were euthanized. Right lungs were extracted and measured for hydroxyproline content, while left lungs were subjected to histology. Histological sections were stained with picrosirius red and scored for lung tissue fibrosis. Twenty random photographs of each stained lung tissue section were taken, blinded and scored by an independent review panel. Observations were pooled for analysis.

[3] = Aerosol tolerability analysis of low concentration dosage forms; settings: citrate 5 mM, MgCl2 130 mM, pH 5.5, pirfenidone 16 mg/mL; for Throat Irritation: 3.7 micron
Text: Additional observations include maintaining osmolality between about 250 to about 500 mOsmo/kg. The tolerability for formulations with an osmolalty outside this range may be adjusted with modifications in the above formulation parameters and device output and aerosol particle size characteristics.

[4] = Bleomycin + IT pirfenidone 0.9 mg/kg
[5] = Bleomycin + IT pirfenidone 3.0 mg/kg
[6] = Bleomycin + IT pirfenidone 6.4 mg/kg
[7] = Bleomycin + PO pirfenidone 30 mg/kg
[8] = Bleomycin + PO pirfenidone 100 mg/kg

Structure (SMILES): Cc1ccc(=O)n(-c2ccccc2)c1 [pirfenidone, 5-methyl-1-phenyl-2-(1H)-pyridone]
- Recrystallization upon storage ([1]; overnight at 4° C., 23.0 mg/mL (85% saturation), 4% EtOH, 8% PG, 88% phosphate buffer (5 mM), pH 6.6): No
- Recrystallization upon storage ([1]; overnight at 4° C., 29.5 mg/mL, 6% EtOH, 12% PG, 82% phosphate buffer (5 mM), pH 7.0): No
- Recrystallization upon storage ([1]; overnight at 4° C., […], 8% EtOH, 16% PG, 76% phosphate buffer (5 mM), pH 7.0): No
- Recrystallization upon storage ([1]; overnight at 15° C., 23.0 mg/mL (85% saturation), 4% EtOH, 8% PG, 88% phosphate buffer (5 mM), pH 6.6): No
- Recrystallization upon storage ([1]; overnight at 15° C., 29.5 mg/mL, 6% EtOH, 12% PG, 82% phosphate buffer (5 mM), pH 7.0): No
- Recrystallization upon storage ([1]; overnight at 15° C., […], 8% EtOH, 16% PG, 76% phosphate buffer (5 mM), pH 7.0): No
- Recrystallization upon storage ([1]; overnight at 25° C., 23.0 mg/mL (85% saturation), 4% EtOH, 8% PG, 88% phosphate buffer (5 mM), pH 6.6): No
- Recrystallization upon storage ([1]; overnight at 25° C., 27.2 mg/mL (saturation solubility), 4% EtOH, 8% PG, 88% phosphate buffer (5 mM), pH 6.6): Yes
- Recrystallization upon storage ([1]; overnight at 25° C., 29.5 mg/mL, 6% EtOH, 12% PG, 82% phosphate buffer (5 mM), pH 7.0): No
- Recrystallization upon storage ([1]; overnight at 25° C., 34.7 mg/mL, 6% EtOH, 12% PG, 82% phosphate buffer (5 mM), pH 7.0): Yes
- Recrystallization upon storage ([1]; overnight at 25° C., 43.7 mg/mL, 8% EtOH, 16% PG, 76% phosphate buffer (5 mM), pH 7.0): Yes
- Recrystallization upon storage ([1]; overnight at 25° C., […], 8% EtOH, 16% PG, 76% phosphate buffer (5 mM), pH 7.0): No
- Recrystallization upon storage ([1]; overnight at −20° C., 23.0 mg/mL (85% saturation), 4% EtOH, 8% PG, 88% phosphate buffer (5 mM), pH 6.6, crystals re-dissolved at 25° C. without agitation): Yes^f
- Recrystallization upon storage ([1]; overnight at −20° C., 29.5 mg/mL, 6% EtOH, 12% PG, 82% phosphate buffer (5 mM), pH 7.0, crystals re-dissolved at 25° C. without agitation): Yes^f
- Recrystallization upon storage ([1]; overnight at −20° C., […], 8% EtOH, 16% PG, 76% phosphate buffer (5 mM), pH 7.0, crystals re-dissolved at 25° C. without agitation): Yes^f
- possible lung tissue Cmax ([2]; 0.9 mg/kg dose to 250 gram rat, lung about 1.5 grams, whole dose): ≤ 150 mcg/gram
- possible lung tissue Cmax ([2]; 0.9 mg/kg intratracheal dose divided into thirds): about 50 mcg/gram lung tissue
- anti-fibrotic efficacy ([2]; 3.0 mg/kg intratracheal, direct lung aerosol, once a day days 7-28): no observed pirfenidone efficacy
- Average Fibrosis Score, Picrosirius Red-stained left lung sections [2, 4]: 2.88*
- Lung Tissue AUC0-2 hrs [2, 4]: 2.6 µg·h/g
- Lung Tissue Cmax [2, 4]: 11.6 µg/g
- Right lung Average Hydroxyproline ([2]; Bleomycin + IT pirfenidone 0.9 mg/kg once a day): 2.88* mg/right lung
- Average Fibrosis Score, difference from bleomycin control [2, 4]: −0.53*, ****
- Right lung Average Hydroxyproline, difference from bleomycin control [2, 4]: −0.70*, **** mg/right lung
- Average Fibrosis Score, Picrosirius Red-stained left lung sections [2, 5]: 3.66
- Lung Tissue AUC0-2 hrs [2, 5]: 7.3 µg·h/g
- Lung Tissue Cmax [2, 5]: 33.5 µg/g
- Right lung Average Hydroxyproline ([2]; Bleomycin + IT pirfenidone 3.0 mg/kg once a day): 3.56 mg/right lung
- Average Fibrosis Score, difference from bleomycin control [2, 5]: 0.26***, ****
- Right lung Average Hydroxyproline, difference from bleomycin control [2, 5]: −0.02**, **** mg/right lung
- Average Fibrosis Score, Picrosirius Red-stained left lung sections [2, 6]: 3.47
- Lung Tissue AUC0-2 hrs [2, 6]: 15.5 µg·h/g
- Lung Tissue Cmax [2, 6]: 71.5 µg/g
- Right lung Average Hydroxyproline ([2]; Bleomycin + IT pirfenidone 6.4 mg/kg once a day): 3.50 mg/right lung
- Average Fibrosis Score, difference from bleomycin control [2, 6]: 0.07**, ****
- Right lung Average Hydroxyproline, difference from bleomycin control [2, 6]: −0.08***, **** mg/right lung
- Average Fibrosis Score, Picrosirius Red-stained left lung sections [2, 7]: 3.11
- Lung Tissue AUC0-2 hrs [2, 7]: 18.2 µg·h/g
- Lung Tissue Cmax [2, 7]: 11.8 µg/g
- Right lung Average Hydroxyproline ([2]; Bleomycin + PO pirfenidone 30 mg/kg once a day): 3.65 mg/right lung
- Average Fibrosis Score, difference from bleomycin control [2, 7]: 0.68*, **
- Right lung Average Hydroxyproline, difference from bleomycin control [2, 7]: 0.43*, ** mg/right lung
- Average Fibrosis Score, Picrosirius Red-stained left lung sections [2, 8]: 3.61
- Lung Tissue AUC0-2 hrs [2, 8]: 34.4 µg·h/g
- Lung Tissue Cmax [2, 8]: 33.6 µg/g
- Right lung Average Hydroxyproline ([2]; Bleomycin + PO pirfenidone 100 mg/kg once a day): 3.73 mg/right lung
- Average Fibrosis Score, difference from bleomycin control [2, 8]: 1.18***
- Right lung Average Hydroxyproline, difference from bleomycin control [2, 8]: 0.51*** mg/right lung
- anti-fibrotic efficacy (fibrosis, hydroxyproline), direct lung versus oral ([2]; intratracheal aerosol versus oral gavage): more efficacious
- Est. Osmolality [3]: 490 mOsmo/Kg
- Throat Irritation [3]: 3
- Est. Osmolality ([3]; saccharin 0.5 mM): 490 mOsmo/Kg
- Throat Irritation ([3]; saccharin 0.5 mM): 2
